Test results reported in patent US20200017496A1 (priority 2017, published 2020).
Where two headings read alike, the source gives them in different places.

How the values were obtained:
Test in all cases: MIC of compounds alone and combined with antibacterials, broth microdilution (CLSI)
Format in all cases: cell-based
[1] = system: Escherichia coli (ECO) isolates; details: for MIC ATB in combination: AF1 @ 4 μg/mL; for MIC: Escherichia coli
In short: (§1)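 Compound MIC, and antibacterial MIC at each fixed compound level, taken by visual inspection as lowest concentration stopping growth. Inoculum: log-phase bacteria, final 5·10^5 CFU/mL, cation-adjusted Mueller-Hinton broth; 16-20 h, 35° C, ambient air.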

[2] = system: Salmonella typhimurium (STY) isolates
In short: as §1

[3] = system: Providencia rettgeri (PRE) isolates; details: for MIC: Providencia rettgeri, ATB alone
In short: as §1

[4] = system: Providencia stuartii (PST) isolates; details: for MIC ATB in combination: AF1 @ 4 μg/mL; for MIC: Providencia stuartii, ATB alone, read-out: MIC
In short: as §1

[5] = system: Enterobacter aerogenes (EAE) isolates; details: for MIC ATB in combination: AF1 @ 4 μg/mL; for MIC: Klebsiella aerogenes
In short: as §1

CO/N=C(\C(=O)N[C@@H]1C(=O)N2C(C(=O)O)=C(COC(N)=O)CS[C@H]12)c1ccco1 [FUR, Cefuroxime]
MIC ATB in combination ([1]; ECO 4133): 4 µg/mL
MIC ATB in combination ([1]; ECO 5302): 4 µg/mL
MIC ATB in combination ([1]; ECO 131119): 4 µg/mL
MIC ATB in combination ([1]; ECO 180070): 4 µg/mL
MIC ATB in combination ([1]; ECO 190314): 4 µg/mL
MIC ATB in combination ([1]; ECO 190317): 4 µg/mL
MIC ATB in combination ([1]; ECO 190457): 8 µg/mL
MIC ATB in combination ([1]; ECO 190549): 2 µg/mL
MIC ATB in combination ([1]; ECO 200159): 2 µg/mL
MIC ATB in combination ([1]; ECO 200259): 2 µg/mL
MIC ATB in combination ([1]; ECO 200344): 4 µg/mL
MIC ATB in combination ([1]; ECO 260096): 4 µg/mL
MIC ATB in combination ([1]; ECO 260304): 4 µg/mL
MIC ATB in combination ([1]; ECO 260508): 2 µg/mL
MIC ATB in combination ([1]; ECO RGN238): 8 µg/mL
MIC ATB in combination ([1]; ECO UFR15): 2 µg/mL
MIC ATB in combination ([1]; ECO UFR16): 16 µg/mL
MIC ATB in combination ([1]; ECO UFR18): 32 µg/mL
MIC ATB in combination ([1]; ECO UFR19): 16 µg/mL
MIC ATB in combination ([1]; ECO UFR20): 64 µg/mL
MIC ATB in combination ([1]; ECO UFR61O): 8 µg/mL
MIC ATB in combination ([1]; ECO UFR62): 8 µg/mL
MIC ATB in combination ([1]; ECO UFR74): 16 µg/mL
MIC ATB in combination ([1]; ECO UFR86): 32 µg/mL
MIC ATB in combination ([1]; ECO UFR174): 2 µg/mL
MIC ATB in combination ([1]; ECO UFR175): 8 µg/mL
MIC ATB in combination ([1]; ECO UFR176): 4 µg/mL
MIC ATB in combination ([1]; ECO UFR184): 64 µg/mL
MIC ATB in combination ([1]; ECO UFR186): 16 µg/mL
MIC ATB in combination ([1]; ECO UFR187): 8 µg/mL
MIC ATB in combination ([1]; ECO UFR189): 2 µg/mL
MIC ATB in combination ([1]; ECO UFR190): 8 µg/mL
MIC ATB in combination ([1]; ECO UFR191): 8 µg/mL
MIC ATB in combination ([1]; ECO UFR207): 2 µg/mL
MIC ATB in combination ([1]; ECO UFR209): 4 µg/mL
MIC ATB in combination ([1]; ECO UFR210): 2 µg/mL
MIC ATB in combination ([1]; ECO UFR211): 8 µg/mL
MIC ATB in combination ([1]; ECO UFR218): 4 µg/mL
MIC [1]: > 256 µg/mL
MIC ([1]; strain ECO 4133 (TEM-30, OXA-1), ATB alone): 16 µg/mL
MIC ([1]; strain ECO 5302 (TEM-1, OXA-1), ATB alone): 32 µg/mL
MIC ([1]; strain ECO 131119 (TEM-1, OXA-48), ATB alone): 8 µg/mL
MIC ([1]; strain ECO 180070 (TEM-1, CTX-M-15), ATB alone, read-out: MIC): > 256 µg/mL
MIC ([1]; strain ECO 190314 (CTX-M-1), ATB alone, read-out: MIC): > 256 µg/mL
MIC ([1]; strain ECO 190317 (TEM-1, SHV-12, CTX-M-15, OXA-1), ATB alone): > 512 µg/mL
MIC ([1]; strain ECO 190457 (CTX-M-15, OXA-1), ATB alone, read-out: MIC): > 256 µg/mL
MIC ([1]; strain ECO 190549 (CTX-M-1), ATB alone, read-out: MIC): > 256 µg/mL
MIC ([1]; strain ECO 200159 (TEM-1, CTX-M-14), ATB alone, read-out: MIC): > 256 µg/mL
MIC ([1]; strain ECO 200259 (CTX-M-14), ATB alone, read-out: MIC): > 256 µg/mL
MIC ([1]; strain ECO 200344 (CTX-M-1), ATB alone, read-out: MIC): > 256 µg/mL
MIC ([1]; strain ECO 260096 (CTX-M-132), ATB alone, read-out: MIC): > 256 µg/mL
MIC ([1]; strain ECO 260304 (CTX-M-15), ATB alone, read-out: MIC): > 256 µg/mL
MIC ([1]; strain ECO 260508 (TEM-1, CTX-M-15, OXA-1), ATB alone, read-out: MIC): > 256 µg/mL
MIC ([1]; strain ECO RGN238 (OXA-1), ATB alone): 16 µg/mL
MIC ([1]; strain ECO UFR15 (TEM-1, OXA-48), ATB alone): 16 µg/mL
MIC ([1]; strain ECO UFR16 (TEM-1, CTX-M-15, OXA-1, OXA-48), ATB alone, read-out: MIC): > 256 µg/mL
MIC ([1]; strain ECO UFR17 (TEM-1, CTX-M-15, CMY-2, OXA-1, OXA-181), ATB alone, read-out: MIC): > 256 µg/mL
MIC ([1]; strain ECO UFR18 (CTX-M-15, OXA-204), ATB alone, read-out: MIC): > 256 µg/mL
MIC ([1]; strain ECO UFR19 (CTX-M-15, CMY-2, OXA-1, OXA-204), ATB alone, read-out: MIC): > 256 µg/mL
MIC ([1]; strain ECO UFR20 (SHV-1, CTX-M-15, OXA-1, OXA-232), ATB alone, read-out: MIC): > 256 µg/mL
MIC ([1]; strain ECO UFR74 (SHV-1, DHA-1), ATB alone, read-out: MIC): > 256 µg/mL
MIC ([1]; strain ECO UFR86 (ompC-, ompF-), ATB alone, read-out: MIC): 64 µg/mL
MIC ([1]; strain ECO UFR184 (CTX-M-15, CMY-4, OXA-1, OXA-204), ATB alone, read-out: MIC): > 256 µg/mL
MIC ([1]; strain ECO UFR185 (OXA-48), ATB alone, read-out: MIC): > 256 µg/mL
MIC ([1]; strain ECO UFR186 (TEM-1, CTX-M-14, OXA-48), ATB alone, read-out: MIC): > 256 µg/mL
MIC ([1]; strain ECO UFR187 (CTX-M-15, OXA-48), ATB alone, read-out: MIC): > 256 µg/mL
MIC ([1]; strain ECO UFR189 (TEM-1, CTX-M-15, OXA-48), ATB alone, read-out: MIC): > 256 µg/mL
MIC ([1]; strain ECO UFR190 (CTX-M-24, OXA-48), ATB alone, read-out: MIC): > 256 µg/mL
MIC ([1]; strain ECO UFR191 (TEM-1, CTX-M-24, OXA-48), ATB alone, read-out: MIC): > 256 µg/mL
MIC ([1]; strain ECO UFR207 (CTX-M-15), ATB alone, read-out: MIC): > 256 µg/mL
MIC ([1]; strain ECO UFR208 (SHV-12), ATB alone, read-out: MIC): > 256 µg/mL
MIC ([1]; strain ECO UFR209 (TEM-1, CTX-M-15), ATB alone, read-out: MIC): > 256 µg/mL
MIC ([1]; strain ECO UFR210 (SHV-12), ATB alone, read-out: MIC): > 256 µg/mL
MIC ([1]; strain ECO UFR212 (CMY-2), ATB alone, read-out: MIC): > 256 µg/mL
MIC ([1]; strain ECO UFR218 (TEM-1, SHV-1, CTX-M-15), ATB alone, read-out: MIC): > 256 µg/mL
MIC ATB in combination ([2]; STY S3371, AF1 @ 4 μg/mL): 4 µg/mL
MIC ([2]; Salmonella enterica, TYPHIMURIUM, strain STY S3371 (OXA-1), ATB alone): 32 µg/mL
MIC ATB in combination ([3]; PRE UFR99, AF1 @ 4 μg/mL): >128 µg/mL
MIC ([3]; strain PRE UFR99 (OXA-1, OXA-181)): > 256 µg/mL
MIC ([3]; strain PRE UFR236 (TEM-1, OXA-48), read-out: MIC): 64 µg/mL
MIC ATB in combination ([3]; strain PRE UFR236, antibacterial combined with AF1 @ 4 μg/mL): 8 µg/mL
MIC ATB in combination ([4]; PST UFR94): 8 µg/mL
MIC ATB in combination ([4]; PST UFR95): 32 µg/mL
MIC ATB in combination ([4]; PST UFR235): 8 µg/mL
MIC ([4]; strain PST UFR94 (CTX-M-14)): > 256 µg/mL
MIC ([4]; strain PST UFR95 (TEM-24)): 128 µg/mL
MIC ([4]; strain PST UFR235 (VEB-1)): 256 µg/mL
MIC ATB in combination ([5]; EAE 49469): 64 µg/mL
MIC ATB in combination ([5]; EAE 200261): 64 µg/mL
MIC ATB in combination ([5]; EAE UFR199): 8 µg/mL
MIC ATB in combination ([5]; EAE UFR201): 2 µg/mL
MIC ATB in combination ([5]; EAE UFR202): 32 µg/mL
MIC ATB in combination ([5]; EAE UFR213): 8 µg/mL
MIC [5]: > 256 µg/mL
MIC ([5]; strain EAE 49469 (AmpC), ATB alone, read-out: MIC): > 128 µg/mL
MIC ([5]; strain EAE 200261 (TEM-x, AmpC), ATB alone, read-out: MIC): > 256 µg/mL
MIC ([5]; strain EAE UFR201 (TEM-1, SHV-12, CTX-M-15), ATB alone, read-out: MIC): > 256 µg/mL
MIC ([5]; strain EAE UFR202 (TEM-24), ATB alone, read-out: MIC): > 256 µg/mL
MIC ([5]; strain EAE UFR213 (TEM-24), ATB alone, read-out: MIC): > 256 µg/mL
